Reference: patent publication US20260265244A1, “HETEROCYCLIC COMPOUNDS AS STING ANTAGONISTS” (Boehringer Ingelheim International GmbH, priority 2022, published 2026)

Each molecule was assayed against T1, cGAMP binding domain of wild-type (GRR) human STING, residues 155-341 (Homo sapiens, UniProt Q86WV6, H232R) (assay: Increase of stability of STING protein against thermal denaturation, Differential Scanning Fluorimetry (DSF)).
T1 construct: His-TEV-hSTING (WT); TEV protease cleavage site (N); made in house; host or cells: E. coli BL21 DE3
Protocol: Dye fluorescence is quenched in aqueous environment and increases upon association of the dye with the hydrophobic parts of the unfolding protein. […] The inflection point of the curve represents the “melting” temperature of the protein (Tm) which is calculated numerically using the Boltzmann equation.
Method: The thermal stability of the STING protein was measured using a specific expression construct of the cGAMP binding domain of wild-type (GRR) human STING comprising residues 155-341 and a N-terminal 8×His-tag (SEQ ID NO: 3) in assay buffer containing 20 mM Tris, 150 mM NaCl at pH7.5.
The assay uses Hard-Shell® PCR Plates 384-Well CLR/WHT (Catalog #HSP3805, BIO-RAD), Microseal® ‘B’ Adhesive Seals for PCR Plates (Catalog #MSB-1001, BIO-RAD) and was run on a CFX384 Real-Time System (Bio-Rad).
A DMSO stock solution of SYPRO orange (SIGMA S5692-500UL) was prepared.
Compound stock solutions (10 mM in DMSO) were diluted 1:2 in DMSO to an intermediate compound concentration of 5 mM and then further diluted 1:40 in assay buffer resulting in a compound concentration of 125 μM and 2.5% DMSO.
Fluorescent dye stock solution (5000×SYPRO Orange) was then mixed with target protein and buffer to a concentration of 15 uM Protein and 25×SYPRO Orange. 2 ul of this protein-dye-mixture was added to 8 ul compound solution. Final volume was 10 uL. 3-6 well positions were used as negative control (protein with 2% DMSO). The plates were prepared for duplicate measurement and centrifuged for 2 min at 1000 g. In the measurement, 160 cycles of 0.5° C. were used (temperature ramp 15 s/cycle, 15° C. to 95° C.).
Final Assay concentrations for compound characterization were as follows: 100 uM compound, 3 uM target protein, 5×SYPRO Orange, 2% DMSO in 10 ul. All dispensing steps were performed using a HamiltonStar pipetting robot (Hamilton).
Dissociation curves were processed in Bio-Rad CFX Manager. Peak type was set to “negative”. Compound codes for screen were assigned in the plate layout.
Two replicates of TM measurements were averaged, and the standard deviation was calculated. In cases of SD>1.5° C. the measurement was repeated.
The melting point (Tm) obtained for STING protein alone was subtracted from T obtained for protein incubated with ligand to generate ΔTm values.
Protein production and purification: The protein used for the biophysical experiments was a recombinant human STING protein comprising its cytosolic ectodomain. A codon optimized DNA sequence (for expression in Escherichia coli) encoding amino acid residues 155 to 341 (Swiss Prot Q86WV6) of human STING (WT) was synthesized by GeneArt (Regensburg, Germany) and inserted into a pET17b E. coli expression vector. The protein construct encodes an N-terminal 8×His-tag (SEQ ID NO: 3) followed by tobacco etch virus protease (TEV) cleavage site and the above STING gene sequence. The resulting protein sequence for the used STING variant is listed below:
For expression of recombinant human STING above construct was transformed into E. coli BL21 DE3 strain and grown in shake flasks in LB-medium at 37° C. Expression was induced by addition of isopropyl β-D-1-thiogalactopyranoside to a final concentration of 1 mM and cultures shaken overnight. Cell pellets were centrifuged and stored at −70° C. until further use. Protein was purified by cell thawing in lysis buffer (20 mM TRIS-HCl, pH 8, 300 mM NaCl, 2 mM mercaptoethanol, 20 mM imidazole, Complete Protease Inhibitor (Roche) and DNase (Roche)), followed by metal affinity purification using Ni-NTA resins and elution buffer consisting of 20 mM TRIS-HCl, pH 8, 300 mM NaCl, 2 mM mercaptoethanol, 300 mM imidazole and size exclusion chromatography in running buffer (20 mM TRIS-HCl, pH 8, 100 mM NaCl, 2 mM DTT). The peak fraction was collected and concentrated to 2.5 mg/mL.

T1 sequence (Q86WV6 with tags, fused parts or gaps H232R): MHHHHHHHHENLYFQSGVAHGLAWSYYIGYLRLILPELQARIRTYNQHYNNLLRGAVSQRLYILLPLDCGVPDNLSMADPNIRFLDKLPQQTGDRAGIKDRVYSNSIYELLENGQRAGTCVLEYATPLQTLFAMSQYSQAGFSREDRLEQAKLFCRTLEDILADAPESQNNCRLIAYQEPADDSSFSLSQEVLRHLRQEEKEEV

DSF [K] | Compound
25 | Cc1nc2nn(Cc3ncnn3C)cc2cc1-n1nc(-c2cccc3nn(C[C@H](O)c4ccccc4)cc23)c(C(C)C)c1C [Example 62, (1R)-2-[4-(5-methyl-1-{6-methyl-2-[(1-methyl-1H-1,2,4-triazol-5-yl)methyl]-2H-pyrazolo[3,4-b]pyridin-5-yl}-4-(propan-2-yl)-1H-pyrazol-3-yl)-2H-indazol-2-yl]-1-phenylethan-1-ol]
29 | Cc1nc2nn(CC(F)F)cc2cc1-n1nc(-c2cccc3nn(C[C@H](O)c4ccccc4)cc23)c(C(C)C)c1C [Example 103, (1R)-2-(4-{1-[2-(2,2-difluoroethyl)-6-methyl-2H-pyrazolo[3,4-b]pyridin-5-yl]-5-methyl-4-(propan-2-yl)-1H-pyrazol-3-yl}-2H-indazol-2-yl)-1-phenylethan-1-ol]
28 | Cc1nc2nn(C)cc2cc1-n1nc(-c2cccc3nn(C[C@H](O)c4ccccc4)cc23)c(C(C)C)c1C [Example 102, (1R)-2-[4-(1-{2,6-Dimethyl-2H-pyrazolo[3,4-b]pyridin-5-yl}-5-methyl-4-(propan-2-yl)-1H-pyrazol-3-yl)-2H-indazol-2-yl]-1-phenylethan-1-ol]
29 | Cn1cc2cc(-c3nc(-c4cccc5nn(C[C@H](O)c6ccccc6)cc45)c(C4CC4)n3C)c(C3CC3(F)F)nc2n1 (stereo partly drawn) [Example 110, (1R)-2-(4-{5-cyclopropyl-2-[6-(2,2-difluorocyclopropyl)-2-methyl-2H-pyrazolo[3,4-b]pyridin-5-yl]-1-methyl-1H-imidazol-4-yl}-2H-indazol-2-yl)-1-phenylethan-1-ol]
29 | Cc1nc2nn(CC#N)cc2cc1-n1nc(-c2cccc3nn(C[C@H](O)c4ccccc4)cc23)c(C(C)C)c1C [Example 98, 2-[5-(3-{2-[(2R)-2-hydroxy-2-phenylethyl]-2H-indazol-4-yl}-5-methyl-4-(propan-2-yl)-1H-pyrazol-1-yl)-6-methyl-2H-pyrazolo[3,4-b]pyridin-2-yl]acetonitrile]
26 | Cc1c(C(C)C)c(-c2cccc3nn(C[C@H](O)c4ccccc4)cc23)nn1-c1cc2cn(C)nc2nc1C(F)F [Example 64, (1R)-2-(4-{1-[6-(difluoromethyl)-2-methyl-2H-pyrazolo[3,4-b]pyridin-5-yl]-5-methyl-4-(propan-2-yl)-1H-pyrazol-3-yl}-2H-indazol-2-yl)-1-phenylethan-1-ol]
31 | Cn1c(-c2cc3cn(CCC#N)nc3nc2C2CC2)nc(-c2cccc3nn(C[C@H](O)c4ccccc4)cc23)c1C1CC1 [Example 104, 3-[6-cyclopropyl-5-(5-cyclopropyl-4-{2-[(2R)-2-hydroxy-2-phenylethyl]-2H-indazol-4-yl}-1-methyl-1H-imidazol-2-yl)-2H-pyrazolo[3,4-b]pyridin-2-yl]propanenitrile]
28 | Cc1c(C(C)C)c(-c2cccc3nn(C[C@H](O)c4ccccc4)cc23)nn1-c1cc2cn(C)nc2nc1C1CCOCC1 [Example 73, (1R)-2-(4-{5-methyl-1-[2-methyl-6-(oxan-4-yl)-2H-pyrazolo[3,4-b]pyridin-5-yl]-4-(propan-2-yl)-1H-pyrazol-3-yl}-2H-indazol-2-yl)-1-phenylethan-1-ol]
28 | Cn1cc2cc(-c3nc(-c4cccc5nn(C[C@H](O)c6ccc(OCC7CCOCC7)cc6)cc45)c(C4CC4)n3C)c(C3CC3)nc2n1 [Example 68]
27 | CC(C)c1c(-c2cccc3nn(C[C@H](O)c4ccccc4)cc23)nc(-c2cc3cn(C)nc3nc2C(F)(F)F)n1C [Example 57, (1R)-2-(4-{1-methyl-2-[2-methyl-6-(trifluoromethyl)-2H-pyrazolo[3,4-b]pyridin-5-yl]-5-(propan-2-yl)-1H-imidazol-4-yl}-2H-indazol-2-yl)-1-phenylethan-1-ol]
31 | CC(C)c1nc2nn(C)cc2cc1-c1nc(-c2cccc3nn(C[C@H](O)c4ccccc4)cc23)c(C2CC2)n1C [Example 97, (1R)-2-(4-{5-Cyclopropyl-1-methyl-2-[2-methyl-6-(propan-2-yl)-2H-pyrazolo[3,4-b]pyridin-5-yl]-1H-imidazol-4-yl}-2H-indazol-2-yl)-1-phenylethan-1-ol]

The next lines start with the molecule.

Compound | DSF [K]
Cc1nc2nn(CCCN3CCCC3=O)cc2cc1-n1nc(-c2cccc3nn(C[C@H](O)c4ccccc4)cc23)c(C(C)C)c1C [Example 21, 1-{3-[5-(3-{2-[(2R)-2-hydroxy-2-phenylethyl]-2H-indazol-4-yl}-5-methyl-4-(propan-2-yl)-1H-pyrazol-1-yl)-6-methyl-2H-pyrazolo[3,4-b]pyridin-2-yl]propyl}pyrrolidin-2-one] | 30
Cc1ccc([C@@H](O)Cn2cc3c(-c4nc(-c5cc6cn(C)nc6nc5C(C)C)n(C)c4C4CC4)cccc3n2)cc1 [Example 25, (1R)-2-(4-{5-cyclopropyl-1-methyl-2-[2-methyl-6-(propan-2-yl)-2H-pyrazolo[3,4-b]pyridin-5-yl]-1H-imidazol-4-yl}-2H-indazol-2-yl)-1-(4-methylphenyl)ethan-1-ol] | 30
Cc1nc2nn(C)cc2cc1-n1nc(-c2cccc3nn(C[C@H](OCF)c4ccccc4)cc23)c(C(C)C)c1C [Example 27, 4-(1-{2,6-dimethyl-2H-pyrazolo[3,4-b]pyridin-5-yl}-5-methyl-4-(propan-2-yl)-1H-pyrazol-3-yl)-2-[(2R)-2-(fluoromethoxy)-2-phenylethyl]-2H-indazole] | 25
Cc1nc2nn(CC3CC3)cc2cc1-n1nc(-c2cccc3nn(C[C@H](O)c4ccccc4)cc23)c(C(C)C)c1C [Example 56, (1R)-2-(4-{1-[2-(cyclopropylmethyl)-6-methyl-2H-pyrazolo[3,4-b]pyridin-5-yl]-5-methyl-4-(propan-2-yl)-1H-pyrazol-3-yl}-2H-indazol-2-yl)-1-phenylethan-1-ol] | 25
Cn1cc2cc(-c3nc(-c4cccc5nn(C[C@H](O)c6ccc(O)cc6)cc45)c(C4CC4)n3C)c(C3CC3)nc2n1 [Example 55, 4-[(1R)-2-[4-(5-cyclopropyl-2-{6-cyclopropyl-2-methyl-2H-pyrazolo[3,4-b]pyridin-5-yl}-1-methyl-1H-imidazol-4-yl)-2H-indazol-2-yl]-1-hydroxyethyl]phenol] | 29
Cc1nc2nn(CCCO)cc2cc1-n1nc(-c2cccc3nn(C[C@H](O)c4ccccc4)cc23)c(C(C)C)c1C [Example 32, 3-[5-(3-{2-[(2R)-2-hydroxy-2-phenylethyl]-2H-indazol-4-yl}-5-methyl-4-(propan-2-yl)-1H-pyrazol-1-yl)-6-methyl-2H-pyrazolo[3,4-b]pyridin-2-yl]propan-1-ol] | 28
Cc1c(C(C)C)c(-c2cccc3nn(C[C@H](O)c4ccccc4)cc23)nn1-c1cc2cn(C)nc2nc1C1CCCO1 (stereo partly drawn) [Example 13, (1R)-2-(4-{5-methyl-1-[2-methyl-6-(oxolan-2-yl)-2H-pyrazolo[3,4-b]pyridin-5-yl]-4-(propan-2-yl)-1H-pyrazol-3-yl}-2H-indazol-2-yl)-1-phenylethan-1-ol] | 30
Cc1nc2nn(CCCCO)cc2cc1-n1nc(-c2cccc3nn(C[C@H](O)c4ccccc4)cc23)c(C(C)C)c1C [Example 12, 4-[5-(3-{2-[(2R)-2-hydroxy-2-phenylethyl]-2H-indazol-4-yl}-5-methyl-4-(propan-2-yl)-1H-pyrazol-1-yl)-6-methyl-2H-pyrazolo[3,4-b]pyridin-2-yl]butan-1-ol] | 29
